These results are taken from US20050130197A1, “Homogeneous fluorescence polarization assay for high throughput screening” (priority 2003, published 2005).

Assay [1] concerns the target T1, human NPFF2 receptor (Homo sapiens, UniProt Q9Y5X5).
T1 construct: purchased Euroscreen s.a; (Brussels, Belgium)
Briefly: Fluorescence polarization (FP) competition binding assay, TAMRA-NPFF tracer, 0.1% Pluronic F-127. To be noted: for Ki for inhibiting TAMRA-NPFF binding (in words): FP displacement curves; for affinity to the TAMRA-NPFF binding site / binding to NPFF2 receptor: 10 μM, FP assay; for Ki: FP competition binding, TAMRA-NPFF tracer, human NPFF2 receptor membrane preparation, means ± S.E. of three separate experiments. The protocol:
Human NPFF2 receptor membrane homogenates were diluted in a binding buffer (50 mM HEPES buffer, pH 7.4 and various concentrations of detergents) to the membrane concentration required. In general, the binding assay was performed in a final volume of 40 μl: 20 μl of displacing ligand, 10 μl of fluorescent tracer, and 10 μl of diluted receptor membrane preparation (3.6-4.2 ug protein/well depending on the assay), which were added sequentially. The reaction was incubated at room temperature for 0.5-24 h before FP was measured depending on each experiment.
FP binding data were analyzed and fitted using GraphPad Prism® software (GraphPad Software, Inc., San Diego, Calif.). Competitive binding data was fit to a one-site competitive binding equation using nonlinear regression curve fitting. IC50 values were determined by nonlinear regression analysis of the inhibition curves. Data points in the displacement curves and in the graphs of DMSO, nonionic detergents, Chicago Sky Blue 6B and tartrazine consist of an average of 4-6 repetitions. All error bars represent ±1 standard deviation unit of the spread of the data except for displacement curves, where the error bars represent ±SEM. mP is defined by the following equation: mP=1000×(I∥−I⊥)/(I∥+I⊥) where mP=milli-polarization, I∥=parallel component of the emitted light, and I⊥=perpendicular component of the emitted light. Assay precision was assessed by calculating the Z′ value: Z′=1−[(3*σbound)+(3*σdisplaced)/|(mPbound−mPdisplaced)|] where σ is the standard deviation in the signal, mP: the subscript “bound” corresponds to the signal obtained in the absence of a displacing substance; and the subscript “displaced” corresponds to the signal of a completely displaced ligand (Zhang, J-H. et al., J. Biomol. Screen., (1999) 4, 67-73; Banks, P. et al., J. Biomol. Screen., (2002) 7, 111-117). The denominator of the equation calculates the specific binding expressed in the absolute value of mP difference, and the numerator calculates the precision in both bound and displaced signals. Background correction was done after each analysis by subtracting blank parallel and perpendicular intensities from the respective intensities. According to Z′ value model, the Z′ values of above 0.5 indicate excellent assays.

Assay [2] addresses T1, human NPFF2 receptor. To be noted: data from Eur. J. Pharmacol. 451: 245-256 (2002); read-out: [125I]Ligand Filtration Human Ki (c); cited from earlier work.
The target in assay [3] is T2, human NPFF2 receptor membranes (Homo sapiens, UniProt Q9Y5X5).
T2 construct: purchased Euroscreen s.a; (Brussels, Belgium)
T2 sequence (Q9Y5X5 whole entry): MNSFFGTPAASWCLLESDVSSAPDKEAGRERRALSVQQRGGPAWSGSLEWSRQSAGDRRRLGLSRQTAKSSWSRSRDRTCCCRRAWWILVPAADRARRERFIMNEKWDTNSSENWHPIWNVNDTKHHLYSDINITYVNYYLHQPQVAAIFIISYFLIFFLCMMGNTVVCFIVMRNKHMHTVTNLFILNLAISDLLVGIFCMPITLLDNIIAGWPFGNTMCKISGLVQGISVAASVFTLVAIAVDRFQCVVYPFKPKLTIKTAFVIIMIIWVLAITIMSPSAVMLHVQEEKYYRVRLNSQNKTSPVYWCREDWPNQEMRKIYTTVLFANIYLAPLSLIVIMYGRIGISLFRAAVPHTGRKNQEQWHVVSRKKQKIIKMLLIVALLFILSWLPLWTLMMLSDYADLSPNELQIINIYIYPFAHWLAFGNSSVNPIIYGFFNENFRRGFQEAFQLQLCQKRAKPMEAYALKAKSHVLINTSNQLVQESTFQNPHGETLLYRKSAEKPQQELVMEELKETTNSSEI
Briefly: In vitro functional FP assay with GDP and GTPγS (GTP binding assay). Type of assay: biochemical. To be noted: one agonist fixed at 2-3×IC50, other ligand varied; 3 μM GDP and 5 μM GTPγS.
Procedure: The binding assay was performed in a final volume of 40 μl as follows: 10 μl of different concentrations of displacing ligand, 10 μl of tracer, and 10 μl of diluted receptor membrane preparation (3.6-4.2 ug protein/well), which were added sequentially. After 15 min, 10 μl of the binding buffer with 3-10 μM GDP and 5-50 μM GTPγS was added. The reaction was incubated at room temperature for 15-120 min.
The concentrations of the other agonist increased from 0.0019 nM to 9.0 μM per well.
Next a combination of an agonist with a fixed concentration and an antagonist with varying concentrations was tested under the same conditions.

Assay [4] has as its target T1, human NPFF2 receptor. Conditions: data from J. Biol. Chem. 275: 39324-39331 (2000); read-out: [125I]Ligand Filtration Human Ki (b); cited from earlier work.

Read-outs that look alike come from different tables or passages of the source. Where a SMILES comes first, the peptide text is derived from it. Where no end group is shown, it is not given here. [ ]: non-standard residue; d: D form. NMeF = CN[C@@H](Cc1ccccc1)C(=O)O

T1 sequence (Q9Y5X5 whole entry): as above

As to `CC(C)C[C@H](NC(=O)[C@H](N)Cc1ccc(O)cc1)C(=O)N(C)[C@@H](Cc1ccccc1)C(=O)N[C@@H](CCC(N)=O)C(=O)N1CCC[C@H]1C(=O)N[C@@H](CCC(N)=O)C(=O)N[C@@H](CCCNC(=N)N)C(=O)N[C@@H](Cc1ccccc1)C(N)=O` [[D-Tyr^1(NMe)Phe^3]NPFF, [D-Tyr^1, (N-Me)Phe^3]NPFF] (H-[dY]L[NMeF]QPQRF-NH2), the “Ki for inhibiting TAMRA-NPFF binding (in words)” value at human NPFF2 receptor [1] was “nanomolar range”.

Turning to `CC(COc1ccccc1)N(CCCl)Cc1ccccc1` (stereo not drawn) [phenoxybenzamine], at human NPFF2 receptor [1], the “affinity to the TAMRA-NPFF binding site / binding to NPFF2 receptor” value is “little or no affinity”.

As for `CC(C)C[C@H](NC(=O)[C@H](N)Cc1ccc(O)cc1)C(=O)N(C)[C@@H](Cc1ccccc1)C(=O)N[C@@H](CCC(N)=O)C(=O)N1CCC[C@H]1C(=O)N[C@@H](CCC(N)=O)C(=O)N[C@@H](CCCN=C(N)N)C(=O)N[C@@H](Cc1ccccc1)C(N)=O` [[D-Tyr^1(NMe)Phe^3]NPFF, [D-Tyr^1, (N-Me)Phe^3]NPFF] (H-[dY]L[NMeF]QPQRF-NH2), the Ki at human NPFF2 receptor [2] is 0.18 ± 0.04 nM; at human NPFF2 receptor [1] it was 0.46 ± 0.05 nM.

As for `COc1cc(CNC(=O)CCCC/C=C/C(C)C)ccc1O` [capsaicin], the “affinity to the TAMRA-NPFF binding site / binding to NPFF2 receptor” value on human NPFF2 receptor [1] is “little or no affinity”.

As for `NC(N)=NCCC[C@@H](NC(=O)C(c1ccccc1)c1ccccc1)C(=O)NCc1ccc(O)cc1` [BIBP3226], the “affinity state in in vitro functional assays” value in assay [3] was “monophasic affinity state”. Moreover, the Ki is 84 ± 12 nM on human NPFF2 receptor [2], 96 ± 13 nM at human NPFF2 receptor [1] and 1260 ± 111 nM at human NPFF2 receptor [4].

For the compound “APSEPHHPGDQATQDQLAQYYSDLYQYITFVTRPRF-NH2 [Frog PP]”, the “assay window (FIG. 8)” value at human NPFF2 receptor [1] (0.1% trifluoroacetic acid added to assay buffer) is recorded as 100 mP. Further, the “Ki for inhibiting TAMRA-NPFF binding (in words)” value on human NPFF2 receptor [1] is on record as “nanomolar range”. The Ki on human NPFF2 receptor [4] was 40 ± 11 nM.
